These results are taken from publication PMC4459787 (Science (New York, N.Y.), 2014).

Series [1] relates to human astrocytes. Kind of series: Nucleolar localisation by HA immunostaining in human astrocytes. The series is classed as cell-based. The following applies: U2OS cancer cells and human astrocytes, HA antibody and Fibrillarin staining.
Series [2] concerns U2OS cells. Kind of series: Cell entry and nucleolar localisation by HA immunostaining in U2OS cells. The class given is cell-based. The following applies: 10 μM, 30 min, fixed, HA antibody staining.
The subject of series [3] is EAAT2 transcript. Kind of series: RT-PCR of EAAT2 transcript splicing in human astrocytes. The series is classed as cell-based. The following applies: for aberrant EAAT2 splicing: human astrocytes exposed to toxin until clear evidence of toxicity, PCR, fig. S6B.
Series [4] concerns the target mCherry:hnRNPA2 hydrogel droplets (low complexity domain of hnRNPA2) (Homo sapiens, UniProt P22626). Kind of series: Binding to mCherry:hnRNPA2 hydrogel droplets. The following applies: GFP signal at the periphery of mCherry:hnRNPA2 hydrogel droplets; overnight incubation at 4°C.
Series [5] has as its system ribosomal RNA (45S precursor, 18S, 5.8S, 28S). Kind of series: qPCR of rRNA synthesis and processing in peptide-treated human astrocytes. The series is classed as cell-based. The following applies: 12 hours. (Quantitative PCR measures a nucleic acid by following its amplification.)
Series [6] is classed as in vitro ADME. The following applies: cells or culture medium.
In series [7] the test system is pre-mRNA splicing (RAN GTPase, PTX3, NACA, GADD45A). The series is classed as cell-based. The following applies: human astrocytes.
The test system of series [8] is U2OS cells. The series is classed as cell-based.

Ends that are not written are not given here.

Sequence of mCherry:hnRNPA2 hydrogel droplets (low complexity domain of hnRNPA2) (P22626 193-353 limits assumed, one chain of several): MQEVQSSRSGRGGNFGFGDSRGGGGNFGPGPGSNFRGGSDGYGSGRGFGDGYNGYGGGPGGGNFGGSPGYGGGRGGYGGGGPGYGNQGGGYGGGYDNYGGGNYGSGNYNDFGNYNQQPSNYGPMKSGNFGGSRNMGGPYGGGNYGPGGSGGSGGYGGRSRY

Turning to `CC(C)[C@H](NC(=O)[C@H](CC(=O)O)NC(=O)[C@H](Cc1ccc(O)cc1)NC(=O)[C@@H]1CCCN1C(=O)[C@H](Cc1ccc(O)cc1)NC(=O)[C@H](CCCNC(=N)N)NC(=O)CNC(=O)[C@H](CCCNC(=N)N)NC(=O)CNC(=O)[C@H](CCCNC(=N)N)NC(=O)CNC(=O)[C@H](CCCNC(=N)N)NC(=O)CNC(=O)[C@H](CCCNC(=N)N)NC(=O)CNC(=O)[C@H](CCCNC(=N)N)NC(=O)CNC(=O)[C@H](CCCNC(=N)N)NC(=O)CNC(=O)[C@H](CCCNC(=N)N)NC(=O)CNC(=O)[C@H](CCCNC(=N)N)NC(=O)CNC(=O)[C@H](CCCNC(=N)N)NC(=O)CNC(=O)[C@H](CCCNC(=N)N)NC(=O)CNC(=O)[C@H](CCCNC(=N)N)NC(=O)CNC(=O)[C@H](CCCNC(=N)N)NC(=O)CNC(=O)[C@H](CCCNC(=N)N)NC(=O)CNC(=O)[C@H](CCCNC(=N)N)NC(=O)CNC(=O)[C@H](CCCNC(=N)N)NC(=O)CNC(=O)[C@H](CCCNC(=N)N)NC(=O)CNC(=O)[C@H](CCCNC(=N)N)NC(=O)CNC(=O)[C@H](CCCNC(=N)N)NC(=O)CNC(=O)[C@H](CCCNC(=N)N)NC(=O)CN)C(=O)N1CCC[C@H]1C(=O)N[C@@H](CC(=O)O)C(=O)N[C@@H](Cc1ccc(O)cc1)C(=O)N[C@@H](C)C(=O)O` [GR20], the nucleolar association result in series [1] is reported as “associated prominently with nucleoli”. Moreover, in series [2], the “cell entry and localisation” value is “entered cells, migrated to the nucleus and bound to nucleoli”.

In the case of `CN[C@@H]1C[C@H]2O[C@@](C)([C@@H]1OC)n1c3ccccc3c3c4c(c5c6ccccc6n2c5c31)C(=O)NC4` [staurosporin], in series [3], the “aberrant EAAT2 splicing” value is “None of the four toxins gave evidence of aberrant splicing”.

`CC(=O)O[C@H]1C(=O)[C@@]2(C)[C@H]([C@H](OC(=O)c3ccccc3)[C@]3(O)C[C@H](OC(=O)[C@H](O)[C@@H](NC(=O)c4ccccc4)c4ccccc4)C(C)=C1C3(C)C)[C@]1(OC(C)=O)CO[C@@H]1C[C@@H]2O` [taxol]: the “aberrant EAAT2 splicing” value in series [3] is “None of the four toxins gave evidence of aberrant splicing”.

Turning to green fluorescent protein [GFP], the “binding to hnRNPA2 hydrogel droplets” value in series [4] was “did not bind”.

`C=C1[C@@H](C)[C@H]2[C@H](Cc3ccccc3)NC(=O)[C@]23[C@H](OC(C)=O)/C=C/[C@@](C)(O)C(=O)[C@@H](C)C/C=C/[C@H]3[C@@H]1O` [cytochalasin D]: in series [3], the “aberrant EAAT2 splicing” value was “None of the four toxins gave evidence of aberrant splicing”.

In general, half-life refers to the time in which the quantity being followed falls by half. A low value points to rapid decline. For the compound “PRPRPRPRPRPRPRPRPRPRPRPRPRPRPRPRPRPRPRPRYPYDVPDYA [PR20]”, the “aberrant EAAT2 splicing (exon 9-skipped form and intron 7 retention)” value in series [3] (human astrocytes, 10 or 15 μM, 36 hours, RT-PCR) was “appeared in a concentration-dependent manner”. The nucleolar association result in series [1] was “associated prominently with nucleoli”. Also, in series [5] (10 μM, qPCR), the “attenuation of rRNA precursor, 3′ junction of 5.8S rRNA” value is on record as 40%; the “attenuation of rRNA precursor, third probe (5′ end of 5.8S rRNA)” value is “roughly 20%”; the “elevation of rRNA precursor, 5′ transcribed spacer primers” value is recorded as 20%; the “immature rRNA, first junctional probe (5′ end of 18S rRNA)” value is given as “elevation in immature rRNA”. In series [5] (10 μM, qPCR), the “rRNA precursor, 5′ junction of 28S rRNA” value was “normal precursor levels” and the “rRNA precursor, second junctional probe (3′ end of 18S rRNA)” value was “normal levels of rRNA precursor”. In addition, in series [5] (30 μM, qPCR), the “28S rRNA level” value is given as “Slight reductions” and the “drop of rRNA precursor, 3′ terminus of 5.8S rRNA” value worked out at 70%. Besides, the “reduction of the level of 5.8S rRNA” value in series [5] (30 μM, qPCR relative to vehicle) was 70%. For the same compound, the half-life in series [6] is 72 h. In series [7] (6 hours, RT-PCR), the “splicing of GADD45 mRNA” value was “include the full intronic sequences on both sides of exon 2”, the “splicing of NACA mRNA” value is reported as “contain a different 5′ UTR”, the “splicing of PTX3 mRNA” value is recorded as “exon 2-skipping” and the “splicing of RAN GTPase mRNA” value is listed as “exon 2-skipping”. In addition, in series [7] (RNA-seq, P < 2.2e-16, Kolmogorov–Smirnov test), the “expression of the ribosomal protein gene family” value is on record as “significantly up-regulated”. In addition, in series [8] (10 μM peptide, fig. S4E), the “time to half-maximal impact on cell viability” value is on record as “roughly 36 hours”. In addition, the “time to 50% cell death” value in series [8] (30 μM dose of the peptide, fig. S4F) was 6 h. The cell morphology entry in series [8] (U2OS cells, 10 μM, within 24 hours) is “spindle-like phenotype”. Further, in series [8] (U2OS cells, 30 μM, 24 hours), the “cell morphology and viability” value was “almost all cells were detached from the culture substrate and dead”. In addition, the “cell entry and localisation” value in series [2] was “entered cells, migrated to the nucleus and bound to nucleoli”.

On to `COc1cccc2c1C(=O)c1c(O)c3c(c(O)c1C2=O)C[C@@](O)(C(=O)CO)C[C@@H]3O[C@H]1C[C@H](N)[C@H](O)[C@H](C)O1` [doxorubicin], for which, in series [3], the “aberrant EAAT2 splicing” value is on record as “None of the four toxins gave evidence of aberrant splicing”.
